Measured values reported in ChEMBL document CHEMBL1126733, “Orally active, nonpeptide vasopressin V1 antagonists. A novel series of 1-(1-substituted 4-piperidyl)-3,4-dihdyro-2(1H)-quinolinone” (J Med Chem, 1993).
pIC50: −log10 of the molar value. The source made the active and inactive calls. The calls are words filed in the database; no cut-off is given here.

What was measured:
Vasopressin V2 receptor = Vasopressin V2 receptor (Rattus norvegicus, UniProt Q00788); test: Ability to displace [3H]- Arginine Vasopressin (AVP) from its specific binding sites in rat […]
Vasopressin V1a receptor = Vasopressin V1a receptor (Rattus norvegicus, UniProt P30560); test: Ability to displace [3H]- Arginine Vasopressin (AVP) from its specific binding sites in rat liver (V1 receptor)
[1] = target: Vasopressin V1a receptor (Rattus norvegicus) (UniProt P30560); test: Inhibition expressed as percent change in diastolic blood pressure increased by AVP (30 milliunits / kg, iv) before and after oral administration at 79 uM/kg (n=7); type: functional, organism-based; conditions: Artery
[2] = target: Vasopressin V1a receptor (Rattus norvegicus) (UniProt P30560); test: Inhibition dose for AVP (30 milliunits/kg, iv) induced vasoconstriction when orally administarted; type: functional, organism-based
[3] = target: Vasopressin V1a receptor (Rattus norvegicus) (UniProt P30560); conditions: Artery; 22 uM
Description: Inhibition expressed as percent change in diastolic blood pressure increased by AVP (30 milliunits / kg, iv) before and after oral administration at 22 uM/kg

[4] = target: Vasopressin V1a receptor (Rattus norvegicus) (UniProt P30560); test: Inhibition expressed as percent change in diastolic blood pressure increased by AVP (30 milliunits / kg, iv) before and after oral administration at 21 uM/kg; type: functional, organism-based; conditions: Artery
[5] = target: Vasopressin V1a receptor (Rattus norvegicus) (UniProt P30560); test: Inhibition expressed as percent change in diastolic blood pressure increased by AVP (30 milliunits / kg, iv) before and after oral administration at 20 uM/kg); No effect; type: functional, organism-based; conditions: Artery
[6] = target: Vasopressin V1a receptor (Rattus norvegicus) (UniProt P30560); test: Inhibition expressed as percent change in diastolic blood pressure increased by AVP (30 milliunits / kg, iv) before and after oral administration at 23 uM/kg; type: functional, organism-based; conditions: Artery
[7] = target: Vasopressin V1a receptor (Rattus norvegicus) (UniProt P30560); conditions: Artery; 290 uM
Description: Inhibition expressed as percent change in diastolic blood pressure increased by AVP (30 milliunits / kg, iv) before and after oral administration at 290 uM/kg

[8] = target: Vasopressin V1a receptor (Rattus norvegicus) (UniProt P30560); test: Inhibition expressed as percent change in diastolic blood pressure increased by AVP (30 milliunits / kg, iv) before and after oral administration at 76 uM/kg (n=4); type: functional, organism-based; conditions: Artery
[9] = target: Vasopressin V1a receptor (Rattus norvegicus) (UniProt P30560); test: Inhibition expressed as percent change in diastolic blood pressure increased by AVP (30 milliunits / kg, iv) before and after oral administration at 270 uM/kg; type: functional, organism-based; conditions: Artery

Vasopressin V2 receptor, sequence (Q00788 whole entry): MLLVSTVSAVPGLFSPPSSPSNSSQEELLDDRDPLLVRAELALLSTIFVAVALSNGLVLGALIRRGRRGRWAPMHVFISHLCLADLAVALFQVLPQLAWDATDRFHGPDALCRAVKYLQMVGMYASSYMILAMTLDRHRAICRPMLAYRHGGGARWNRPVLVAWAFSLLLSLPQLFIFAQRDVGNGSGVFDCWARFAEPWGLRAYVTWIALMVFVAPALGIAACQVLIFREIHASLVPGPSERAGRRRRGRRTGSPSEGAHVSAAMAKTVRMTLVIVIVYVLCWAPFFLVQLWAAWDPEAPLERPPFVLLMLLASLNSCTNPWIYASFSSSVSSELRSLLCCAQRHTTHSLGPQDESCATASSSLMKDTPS
Vasopressin V1a receptor (Rattus norvegicus), sequence (P30560 whole entry, looked up): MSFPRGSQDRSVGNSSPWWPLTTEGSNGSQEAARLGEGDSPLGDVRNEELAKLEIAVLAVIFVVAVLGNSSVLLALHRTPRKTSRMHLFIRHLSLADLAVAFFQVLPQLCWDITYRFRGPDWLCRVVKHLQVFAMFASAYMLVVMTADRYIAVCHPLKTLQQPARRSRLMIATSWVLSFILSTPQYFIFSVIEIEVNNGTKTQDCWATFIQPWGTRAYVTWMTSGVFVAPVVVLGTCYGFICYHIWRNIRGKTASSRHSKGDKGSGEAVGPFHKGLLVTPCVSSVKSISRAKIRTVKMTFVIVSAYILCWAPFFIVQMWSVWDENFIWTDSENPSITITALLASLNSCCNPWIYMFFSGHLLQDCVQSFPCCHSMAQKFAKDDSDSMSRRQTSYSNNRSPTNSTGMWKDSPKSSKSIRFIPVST
Vasopressin V1a receptor, sequence (P30560 whole entry): as the sequence (P30560 whole entry, looked up) above

| Structure (SMILES) | pIC50 (Vasopressin V2 receptor) | pIC50 (Vasopressin V1a receptor) | other results |
| --- | --- | --- | --- |
| O=C(c1ccccc1)N1CCC(N2C(=O)CCc3ccccc32)CC1 | < 4.30 | 5.72 | – |
| NCCCOc1ccc(C(=O)N2CCC(N3C(=O)CCc4ccccc43)CC2)cc1 | < 4.00 | 6.12 | – |
| O=C1CCc2ccccc2N1C1CCN(Cc2ccccc2)CC1 | < 4.00 | < 4.00 | – |
| NCCOc1ccc(C(=O)N2CCC(N3C(=O)CCc4ccccc43)CC2)cc1 | < 4.00 | 5.70 | – |
| O=C(c1ccccc1[N+](=O)[O-])N1CCC(N2C(=O)CCc3ccccc32)CC1 | < 4.00 | 5.08 | – |
| O=C(c1cnccn1)N1CCC(N2C(=O)CCc3ccccc32)CC1 | < 4.00 | 4.59 | – |
| CCCCOc1ccc(C(=O)N2CCC(N3C(=O)CCc4ccccc43)CC2)cc1 | < 4.00 | 6.38 | – |
| NC(=O)c1ccc(C(=O)N2CCC(N3C(=O)CCc4ccccc43)CC2)cc1 | < 4.00 | 4.96 | – |
| Nc1ccc(C(=O)N2CCC(N3C(=O)CCc4ccccc43)CC2)cc1 | < 4.00 | 5.43 | – |
| CCOc1ccc(C(=O)N2CCC(N3C(=O)CCc4ccccc43)CC2)cc1 | < 4.00 | 6.68 | inhibition [1]: 75% |
| CC(=O)NCCCCCCOc1ccc(C(=O)N2CCC(N3C(=O)CCc4ccccc43)CC2)cc1 | < 4.00 | 6.92 | – |
| CC(=O)NCCCOc1ccc(C(=O)N2CCC(N3C(=O)CCc4ccccc43)CC2)cc1 | < 4.00 | 6.36 | ID50 [2]: 4.4 µmol/kg; inhibition [3]: 93% |
| O=C(c1ccc(F)cc1)N1CCC(N2C(=O)CCc3ccccc32)CC1 | < 4.00 | 5.85 | – |
| CC(=O)NCCCCOc1ccc(C(=O)N2CCC(N3C(=O)CCc4ccccc43)CC2)cc1 | < 4.00 | 6.68 | inhibition [4]: 78%; ID50 [2]: 5.3 µmol/kg |
| CN1CCC(N2C(=O)CCc3ccccc32)CC1 | < 4.30 | < 4.00 | – |
| O=C(c1ccc([N+](=O)[O-])cc1)N1CCC(N2C(=O)CCc3ccccc32)CC1 | < 4.00 | 5.70 | – |
| O=C(c1ccco1)N1CCC(N2C(=O)CCc3ccccc32)CC1 | < 4.00 | 4.96 | – |
| NCCCCOc1ccc(C(=O)N2CCC(N3C(=O)CCc4ccccc43)CC2)cc1 | < 4.00 | 6.48 | – |
| NCCCCCCCCOc1ccc(C(=O)N2CCC(N3C(=O)CCc4ccccc43)CC2)cc1 | 4.36 | 7.17 | inhibition [5]: inactive |

| Structure (SMILES) | pIC50 (Vasopressin V2 receptor) | pIC50 (Vasopressin V1a receptor) | other results |
| --- | --- | --- | --- |
| O=C(c1cccc(Cl)c1)N1CCC(N2C(=O)CCc3ccccc32)CC1 | < 4.00 | 5.36 | – |
| O=C(c1ccncc1)N1CCC(N2C(=O)CCc3ccccc32)CC1 | < 4.00 | 4.43 | – |
| O=C(c1cccc([N+](=O)[O-])c1)N1CCC(N2C(=O)CCc3ccccc32)CC1 | < 4.00 | 5.51 | – |
| Cc1ccccc1C(=O)N1CCC(N2C(=O)CCc3ccccc32)CC1 | < 4.00 | 5.08 | – |
| O=C(c1cccc(O)c1)N1CCC(N2C(=O)CCc3ccccc32)CC1 | < 4.00 | 5.20 | – |
| O=C(c1ccc(Br)cc1)N1CCC(N2C(=O)CCc3ccccc32)CC1 | 4.14 | 6.30 | – |
| CCc1ccc(C(=O)N2CCC(N3C(=O)CCc4ccccc43)CC2)cc1 | 4.10 | 6.30 | – |
| CC(=O)Oc1ccc(C(=O)N2CCC(N3C(=O)CCc4ccccc43)CC2)cc1 | < 4.00 | – | – |
| O=CNCCCCOc1ccc(C(=O)N2CCC(N3C(=O)CCc4ccccc43)CC2)cc1 | < 4.00 | 6.60 | – |
| CC(=O)NCCCCCOc1ccc(C(=O)N2CCC(N3C(=O)CCc4ccccc43)CC2)cc1 | < 4.00 | 6.80 | inhibition [4]: 81%; ID50 [2]: 4.7 µmol/kg |
| CC(=O)Oc1ccccc1C(=O)N1CCC(N2C(=O)CCc3ccccc32)CC1 | < 4.00 | 5.85 | – |
| COC(=O)c1ccc(C(=O)N2CCC(N3C(=O)CCc4ccccc43)CC2)cc1 | < 4.00 | 5.46 | – |
| N#Cc1ccc(C(=O)N2CCC(N3C(=O)CCc4ccccc43)CC2)cc1 | < 4.00 | 5.51 | – |
| O=C(c1ccccc1O)N1CCC(N2C(=O)CCc3ccccc32)CC1 | < 4.00 | 5.82 | – |
| CC(=O)Nc1ccc(C(=O)N2CCC(N3C(=O)CCc4ccccc43)CC2)cc1 | < 4.00 | 5.55 | – |
| CC(=O)NCCOc1ccc(C(=O)N2CCC(N3C(=O)CCc4ccccc43)CC2)cc1 | < 4.00 | 6.38 | inhibition [6]: 80%; ID50 [2]: 7.7 µmol/kg |
| CCCCc1ccc(C(=O)N2CCC(N3C(=O)CCc4ccccc43)CC2)cc1 | 4.08 | 6.46 | – |
| COc1ccc(C(=O)N2CCC(N3C(=O)CCc4ccccc43)CC2)cc1 | < 4.00 | 6.21 | – |
| Cc1ccc(C(=O)N2CCC(N3C(=O)CCc4ccccc43)CC2)cc1 | < 4.00 | 6.30 | inhibition [7]: 23% |

| Structure (SMILES) | pIC50 (Vasopressin V2 receptor) | pIC50 (Vasopressin V1a receptor) | other results |
| --- | --- | --- | --- |
| CCCOc1ccc(C(=O)N2CCC(N3C(=O)CCc4ccccc43)CC2)cc1 | < 4.00 | 6.49 | inhibition [8]: 65% |
| CC(=O)Oc1cccc(C(=O)N2CCC(N3C(=O)CCc4ccccc43)CC2)c1 | < 4.00 | 5.43 | – |
| CCC(=O)NCCCOc1ccc(C(=O)N2CCC(N3C(=O)CCc4ccccc43)CC2)cc1 | < 4.00 | 6.11 | – |
| O=C(c1ccccc1Cl)N1CCC(N2C(=O)CCc3ccccc32)CC1 | < 4.00 | 5.00 | – |
| O=C(c1cccs1)N1CCC(N2C(=O)CCc3ccccc32)CC1 | < 4.00 | 5.60 | – |
| NCCCCCCOc1ccc(C(=O)N2CCC(N3C(=O)CCc4ccccc43)CC2)cc1 | < 4.00 | 7.00 | – |
| COC(=O)NCCCOc1ccc(C(=O)N2CCC(N3C(=O)CCc4ccccc43)CC2)cc1 | < 4.00 | 6.44 | – |
| Cc1cccc(C(=O)N2CCC(N3C(=O)CCc4ccccc43)CC2)c1 | < 4.00 | 5.89 | – |
| CC(=O)NCCCCCCCCOc1ccc(C(=O)N2CCC(N3C(=O)CCc4ccccc43)CC2)cc1 | < 4.00 | 6.52 | – |
| CC(=O)N(C)CCCOc1ccc(C(=O)N2CCC(N3C(=O)CCc4ccccc43)CC2)cc1 | < 4.00 | 6.27 | – |
| NCCCCCOc1ccc(C(=O)N2CCC(N3C(=O)CCc4ccccc43)CC2)cc1 | < 4.00 | 6.55 | – |
| CCCCCCOc1ccc(C(=O)N2CCC(N3C(=O)CCc4ccccc43)CC2)cc1 | 4.27 | 5.82 | – |
| O=C(O)c1ccc(C(=O)N2CCC(N3C(=O)CCc4ccccc43)CC2)cc1 | < 4.00 | < 4.00 | – |
| O=C(c1ccc(Cl)cc1)N1CCC(N2C(=O)CCc3ccccc32)CC1 | 4.11 | 5.92 | – |
| CN(C)c1ccc(C(=O)N2CCC(N3C(=O)CCc4ccccc43)CC2)cc1 | < 4.00 | 6.33 | – |
| O=C(Cc1ccccc1)N1CCC(N2C(=O)CCc3ccccc32)CC1 | < 4.00 | 4.92 | – |
| CCCc1ccc(C(=O)N2CCC(N3C(=O)CCc4ccccc43)CC2)cc1 | < 4.00 | 6.48 | inhibition [9]: 86% |
| O=C(c1ccc(O)cc1)N1CCC(N2C(=O)CCc3ccccc32)CC1 | < 4.00 | 5.89 | – |
| O=CNCCCOc1ccc(C(=O)N2CCC(N3C(=O)CCc4ccccc43)CC2)cc1 | < 4.00 | 6.62 | – |
